Experimental data taken from patent US20240033349A1, “VACCINE AND METHOD OF PROTECTION AGAINST CORONAVIRUS INFECTION” (priority 2020, published 2024).

What was measured:
[1] = test system: MERS-CovN3/Jordanp3 virus; set-up: species or system mice; details: mouse, in vivo
[2] = test system: virus of Venezuelan equine encephalomyelitis, strain Trinidad; set-up: species or system mice; details: mouse, in vivo
[3] = test system: SARS-Cov virus (strain SARS-Covktp3); set-up: species or system mice; details: mouse, in vivo
SARS-Cov-2 = details: human, in vivo
[4] = clinical examples, unlike other phthalhydrazide derivatives
[5] = test system: new coronavirus infection COVID-19; details: human, in vivo

SMILES: Nc1cccc2c(=O)[nH][nH]c(=O)c12.[Na] [Tamerit, 5-amino-1,2,3,4-tetrahydrophthalazine-1,4-dione sodium salt]
- Protection effect [1]: 50%
- Survival rate higher than in animals immunized only with VVE [2]: 25-30%
- Survival rate of infected mice depending on the infecting dose [2]: 60-100%
- Protection effect [3]: 50%
- Control MSCT of the chest organs (SARS-Cov-2): pronounced positive dynamics
- Dynamics of clinical and laboratory data (SARS-Cov-2): rapid positive dynamics of clinical and laboratory data
- MSCT grade of lung lesion (SARS-Cov-2): CT-2.
- SARS-Cov-2 RNA test (SARS-Cov-2): not detected.
- ferritin (SARS-Cov-2): ferritin-973.3 ng/ml
- interleukin-6 (SARS-Cov-2): 924.6 pg/mL,
- Toxic, cumulative, mutagenic or teratogenic effects [4]: no toxic, cumulative, mutagenic or teratogenic effects
- Development of early pulmonary fibrosis by computed tomography [5]: not observed in any patient
- Indications for artificial lung ventilation [5]: none of the observed patients treated with Tamerit had indications for artificial lung ventilation
- Infection with COVID-19 after contact with the patients [5]: No one of them got infected
- Reduction of duration of clinical manifestations of the acute phase of the disease [5]: 1.5-2 weeks
- Time to complete regression of symptoms [5]: 3 to 4 days
